Reference: publication PMC6478161 (Biochemistry, 2016)
“And” between values parts separate entries of the source, which are not always exact repeats. Identical values can stand only once. Values belong to the molecule of their own block, whether it stands above or below them.

What was measured:
[1] = target: WT LacY (Escherichia coli, UniProt P02920); test: ITC, sugar; format: binding
[2] = target: WT:Nb-9036 (Escherichia coli, UniProt P02920); test: ITC, α-NPG binding to WT LacY:Nb-9036 complex
[3] = target: WT:Nb-9065 (Escherichia coli, UniProt P02920); test: ITC, α-NPG binding to WT LacY:Nb-9065 complex
[4] = target: Mutant:Nb-9065 (Escherichia coli, UniProt P02920, G262W/G46W); test: ITC, α-NPG binding to double-Trp mutant:Nb-9065 complex
[5] = target: Mutant:Nb-9036 (Escherichia coli, UniProt P02920, G262W/G46W); test: ITC, α-NPG binding to double-Trp mutant:Nb-9036 complex
[6] = target: Double-Trp mutant (G46W/G262W LacY) (Escherichia coli, UniProt P02920, G262W/G46W); test: ITC, α-NPG binding to double-Trp mutant LacY; conditions: ITC at 25 °C; no Nb
[7] = system: double-Trp mutant; conditions: cited from earlier work
[8] = target: T1, WT LacY (Escherichia coli, UniProt P02920); conditions: cytoplasmic face of the WT; cited from earlier work
T1 sequence (P02920 whole entry, looked up): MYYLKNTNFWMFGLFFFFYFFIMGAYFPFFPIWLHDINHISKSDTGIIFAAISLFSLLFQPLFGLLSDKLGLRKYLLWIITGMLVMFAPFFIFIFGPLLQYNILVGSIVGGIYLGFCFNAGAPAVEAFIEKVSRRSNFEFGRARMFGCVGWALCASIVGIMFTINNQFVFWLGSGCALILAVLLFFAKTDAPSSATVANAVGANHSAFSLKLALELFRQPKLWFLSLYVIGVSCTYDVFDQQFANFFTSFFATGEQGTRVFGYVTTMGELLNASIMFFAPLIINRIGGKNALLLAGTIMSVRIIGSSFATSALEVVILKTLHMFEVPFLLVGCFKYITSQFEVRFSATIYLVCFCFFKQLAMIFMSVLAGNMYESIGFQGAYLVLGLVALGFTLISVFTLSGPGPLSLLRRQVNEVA

[9] = target: T2, WT LacY:Nb-9065 (Escherichia coli, UniProt P02920); conditions: WT pre-equilibrated with Nb-9065; 10 mM melibiose
T2 sequence (P02920 whole entry, looked up): T1 sequence (P02920 whole entry, looked up)

[10] = target: T3, WT LacY:Nb-9036 (Escherichia coli, UniProt P02920); test: ITC, IIA^Glc titration of WT LacY:Nb-9036 complex; format: binding; conditions: WT pre-equilibrated with Nb-9036; 10 mM melibiose
T3 sequence (P02920 whole entry, looked up): T1 sequence (P02920 whole entry, looked up)

[11] = target: T4, lactose permease of Escherichia coli (LacY), wild type (Escherichia coli, UniProt P02920 1-417); test: ITC
T4 sequence: T1 sequence (P02920 whole entry, looked up)

[12] = ITC at 25 °C, WT pre-incubated with Nb-9036
[13] = difference in the absence and presence of Nb-9036, WT
[14] = difference in the absence and presence of Nb-9036, WT, listed as galactoside
[15] = ITC at 25 °C, WT pre-incubated with Nb-9065
[16] = difference in the absence and presence of Nb-9065, WT
[17] = ITC at 25 °C, mutant pre-incubated with Nb-9065
[18] = difference in the absence and presence of Nb-9065, mutant
[19] = ITC at 25 °C, mutant pre-incubated with Nb-9036
[20] = difference in the absence and presence of Nb-9036, mutant
[21] = difference in the absence and presence of Nb-9036, mutant, listed as galactoside

Mutant:Nb-9065, sequence (P02920 whole entry G46W/G262W): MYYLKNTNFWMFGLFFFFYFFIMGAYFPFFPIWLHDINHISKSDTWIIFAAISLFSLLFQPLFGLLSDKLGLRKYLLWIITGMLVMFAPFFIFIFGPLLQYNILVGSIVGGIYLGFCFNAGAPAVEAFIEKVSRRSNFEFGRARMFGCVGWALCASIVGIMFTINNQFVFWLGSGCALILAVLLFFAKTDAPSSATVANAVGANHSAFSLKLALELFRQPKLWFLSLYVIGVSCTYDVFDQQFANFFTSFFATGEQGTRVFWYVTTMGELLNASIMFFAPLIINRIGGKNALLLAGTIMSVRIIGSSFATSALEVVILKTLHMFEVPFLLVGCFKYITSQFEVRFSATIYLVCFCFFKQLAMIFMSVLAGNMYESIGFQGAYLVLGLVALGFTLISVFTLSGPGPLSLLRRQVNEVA
Mutant:Nb-9036, sequence (P02920 whole entry G46W/G262W): as above
Double-Trp mutant (G46W/G262W LacY), sequence (P02920 whole entry G46W/G262W): as above

Molecule: O=[N+]([O-])c1ccc(O[C@H]2O[C@H](CO)[C@@H](O)[C@H](O)[C@H]2O)cc1 [nitrophenyl-α-D-glucopyranoside]
titration thermogram (control) ([1]; ITC, 1 mM injected into WT LacY): small, relatively flat thermogram

Molecule: O=[N+]([O-])c1ccc(O[C@H]2O[C@H](CO)[C@H](O)[C@H](O)[C@H]2O)cc1 [α-NPG, p-nitrophenyl-α-D-galactopyranoside]
-TΔS ([1]; ITC at 25 °C, no Nb): −10.3 (3.6) kJ/mol
Kd ([1]; ITC at 25 °C, no Nb): 28800 nM
N (stoichiometry) ([1]; ITC at 25 °C, no Nb): 0.6 (0.1)
ΔG ([1]; ITC at 25 °C, no Nb): −25.9 (0.2) kJ/mol
ΔH ([1]; ITC at 25 °C, no Nb): −15.6 (3.4) kJ/mol
-TΔS [2, 12]: 17.2 (0.5) kJ/mol
Kd [2, 12]: ~300 nM and 300 nM
N (stoichiometry) [2, 12]: 0.5 (0.1)
ΔG [2, 12]: −37.1 (0.6) kJ/mol
ΔH [2, 12]: −54.3 (1.1) kJ/mol
fold decrease in Kd (increase in affinity) by Nb ([2]; Nb-9036:WT complex versus WT alone): ~96 fold
ΔΔG [2, 13]: [−11.2 ^**] kJ/mol
ΔΔH [2, 13]: [−38.7 ^**] kJ/mol
−TΔΔS [2, 13]: [27.5 ^*] kJ/mol
ΔΔH [2, 14]: -9.25 kcal/mol
−TΔΔS [2, 14]: 6.57 kcal/mol
-TΔS [3, 15]: 21.0 (1.7) kJ/mol
Kd [3, 15]: 5700 nM
N (stoichiometry) [3, 15]: 0.5 (0.0)
ΔG [3, 15]: −30.0 (0.1) kJ/mol
ΔH [3, 15]: −51.0 (1.8) kJ/mol
fold decrease in Kd by Nb ([3]; Nb-9065:WT complex versus WT alone): 4 fold
ΔΔG [3, 16]: [−4.1 ^**] kJ/mol
ΔΔH [3, 16]: [−35.4 ^*] kJ/mol
−TΔΔS [3, 16]: [31.3 ^*] kJ/mol
-TΔS [4, 17]: 12.43 (0.9) kJ/mol
Kd [4, 17]: 7100 nM
N (stoichiometry) [4, 17]: 0.4 (0.0)
ΔG [4, 17]: −29.4 (0.2) kJ/mol
ΔH [4, 17]: −41.8 (1.05) kJ/mol
change in Kd by Nb ([4]; Nb-9065:mutant complex versus mutant alone): no detectable change
ΔΔG [4, 18]: [0.9^ns] kJ/mol
ΔΔH [4, 18]: [0.3^ns] kJ/mol
−TΔΔS [4, 18]: [0.6^ns] kJ/mol
-TΔS [5, 19]: 34.2 (2.9) kJ/mol
Kd [5, 19]: ~300 nM and 300 nM
N (stoichiometry) [5, 19]: 0.6 (0.0)
ΔG [5, 19]: −37.5 (0.4) kJ/mol
ΔH [5, 19]: −71.7 (2.5) kJ/mol
fold decrease in Kd (increase in affinity) by Nb ([5]; Nb-9036:mutant complex versus mutant alone): ~19 fold
ΔΔG [5, 20]: [−7.2 ^**] kJ/mol
ΔΔH [5, 20]: [−29.6 ^**] kJ/mol
−TΔΔS [5, 20]: [22.4 ^*] kJ/mol
ΔΔH [5, 21]: -7.07 kcal/mol
−TΔΔS [5, 21]: 5.35 kcal/mol
-TΔS [6]: 11.8 (0.3) kJ/mol
Kd [6]: 5000 nM
N (stoichiometry) [6]: 0.5 (0.0)
ΔG [6]: −30.3 (0.3) kJ/mol
ΔH [6]: −42.1 (0.0) kJ/mol

Molecule: IIA^Glc: a phosphotransferase protein of the glucose-specific phosphoenolpyruvate:carbohydrate phosphotransferase system (E. coli, unphosphorylated)
IIA^Glc binding [7]: does not bind
heat of IIA^Glc binding [8]: endothermic
IIA^Glc binding (thermogram) [9]: no IIA^Glc binding
IIA^Glc binding (thermogram) [10]: no IIA^Glc binding

binding result [11]: binds
B1: IIA^Glc, phosphotransferase protein of the glucose-specific phosphoenolpyruvate:carbohydrate phosphotransferase system (natural protein, E. coli, UniProt P69783 1-169, looked up)
chain: MGLFDKLKSLVSDDKKDTGTIEIIAPLSGEIVNIEDVPDVVFAEKIVGDGIAIKPTGNKMVAPVDGTIGKIFETNHAFSIESDSGVELFVHFGIDTVELKGEGFKRIAEEGQRVKVGDTVIEFDLPLLEEKAKSTLTPVVISNMDEIKELIKLSGSVTVGETPVIRIKK
